Values of other authors as cited in patent US7906154B2, “Compositions and methods for the induction and maintenance of quality sleep” (priority 2006, dated 2011).
Like-named read-outs stand apart in the source and are kept apart here.

COC1=C(OC)C(=O)C(C/C=C(\C)CC/C=C(\C)CC/C=C(\C)CC/C=C(\C)CC/C=C(\C)CC/C=C(\C)CC/C=C(\C)CC/C=C(\C)CC/C=C(\C)CCC=C(C)C)=C(C)C1=O [CoQ10, Coenzyme Q10]
subjects with a decrease in the sound level of their snoring (during non-REM sleep stages I/II): about 40% | subjects with a decrease in the sound level of their snoring (during non-REM sleep stages III/IV): about 33% | subjects with a decrease in the sound level of their snoring (during the REM stage of sleep): about 44%
